Consider nine compounds from patent US20090318351A1, “METHOD OF TREATING ACUTE ST-ELEVATION MYOCARDIAL INFARCTION WITH A DELTA PKC ANTAGONIST” (priority 2008, published 2009).

The series can be described thus: Plasma stability of capped peptides (KAI-9706 modified at amino and carboxy termini). The settings on record: rat. The method, then: Plasma stability of capped peptides was compared. KAI-9706 was modified step-wise at its amino and carboxy termini. Plasma stability as measured by the percent of peptide composition remaining after 15 minutes.

SMILES strings stand for the structures.

In turn, `CC[C@H](C)[C@H](NC(=O)[C@@H]1CCCN1C(=O)[C@H](C)NC(=O)[C@H](CC(=O)O)NC(=O)[C@H](Cc1c[nH]cn1)NC(=O)[C@H](CSSC[C@H](NC(C)=O)C(=O)N[C@@H](Cc1ccc(O)cc1)C(=O)NCC(=O)N[C@@H](CCCNC(=N)N)C(=O)N[C@@H](CCCCN)C(=O)N[C@@H](CCCCN)C(=O)N[C@@H](CCCNC(=N)N)C(=O)N[C@@H](CCCNC(=N)N)C(=O)N[C@@H](CCC(N)=O)C(=O)N[C@@H](CCCNC(=N)N)C(=O)N[C@@H](CCCNC(=N)N)C(=O)N[C@@H](CCCNC(=N)N)C(N)=O)NC(C)=O)C(=O)NCC(=O)N[C@@H](Cc1ccc(O)cc1)C(=O)N[C@@H](CC(=O)O)C(N)=O` [KAI-9706 carrier Ac—NH2 cargo Ac—NH2] registered a fraction remaining at 0.25 h of 90%.

For the compound `CC[C@H](C)[C@H](NC(=O)[C@@H]1CCCN1C(=O)[C@H](C)NC(=O)[C@H](CC(=O)O)NC(=O)[C@H](Cc1c[nH]cn1)NC(=O)[C@H](CSSC[C@H](NC(C)=O)C(=O)N[C@@H](Cc1ccc(O)cc1)C(=O)NCC(=O)N[C@@H](CCCNC(=N)N)C(=O)N[C@@H](CCCCN)C(=O)N[C@@H](CCCCN)C(=O)N[C@@H](CCCNC(=N)N)C(=O)N[C@@H](CCCNC(=N)N)C(=O)N[C@@H](CCC(N)=O)C(=O)N[C@@H](CCCNC(=N)N)C(=O)N[C@@H](CCCNC(=N)N)C(=O)N[C@@H](CCCNC(=N)N)C(N)=O)NC(C)=O)C(=O)NCC(=O)N[C@@H](Cc1ccc(O)cc1)C(=O)N[C@@H](CC(=O)O)C(=O)O` [KAI-9706 carrier Ac—NH2 cargo Ac—OH], the share remaining at 0.25 h was determined as 93%.

With `CC[C@H](C)[C@H](NC(=O)[C@@H]1CCCN1C(=O)[C@H](C)NC(=O)[C@H](CC(=O)O)NC(=O)[C@H](Cc1c[nH]cn1)NC(=O)[C@@H](N)CSSC[C@H](NC(C)=O)C(=O)N[C@@H](Cc1ccc(O)cc1)C(=O)NCC(=O)N[C@@H](CCCNC(=N)N)C(=O)N[C@@H](CCCCN)C(=O)N[C@@H](CCCCN)C(=O)N[C@@H](CCCNC(=N)N)C(=O)N[C@@H](CCCNC(=N)N)C(=O)N[C@@H](CCC(N)=O)C(=O)N[C@@H](CCCNC(=N)N)C(=O)N[C@@H](CCCNC(=N)N)C(=O)N[C@@H](CCCNC(=N)N)C(N)=O)C(=O)NCC(=O)N[C@@H](Cc1ccc(O)cc1)C(=O)N[C@@H](CC(=O)O)C(N)=O` [KAI-9706 carrier Ac—NH2 cargo H—NH2], the fraction remaining at 0.25 h is 90%.

As for `CC[C@H](C)[C@H](NC(=O)[C@@H]1CCCN1C(=O)[C@H](C)NC(=O)[C@H](CC(=O)O)NC(=O)[C@H](Cc1c[nH]cn1)NC(=O)[C@@H](N)CSSC[C@H](NC(C)=O)C(=O)N[C@@H](Cc1ccc(O)cc1)C(=O)NCC(=O)N[C@@H](CCCNC(=N)N)C(=O)N[C@@H](CCCCN)C(=O)N[C@@H](CCCCN)C(=O)N[C@@H](CCCNC(=N)N)C(=O)N[C@@H](CCCNC(=N)N)C(=O)N[C@@H](CCC(N)=O)C(=O)N[C@@H](CCCNC(=N)N)C(=O)N[C@@H](CCCNC(=N)N)C(=O)N[C@@H](CCCNC(=N)N)C(N)=O)C(=O)NCC(=O)N[C@@H](Cc1ccc(O)cc1)C(=O)N[C@@H](CC(=O)O)C(=O)O` [KAI-9706 carrier Ac—NH2 cargo H—OH], the share remaining at 0.25 h worked out at 92%.

Consider `CC[C@H](C)[C@H](NC(=O)[C@@H]1CCCN1C(=O)[C@H](C)NC(=O)[C@H](CC(=O)O)NC(=O)[C@H](Cc1c[nH]cn1)NC(=O)[C@H](CSSC[C@H](NC(C)=O)C(=O)N[C@@H](Cc1ccc(O)cc1)C(=O)NCC(=O)N[C@@H](CCCNC(=N)N)C(=O)N[C@@H](CCCCN)C(=O)N[C@@H](CCCCN)C(=O)N[C@@H](CCCNC(=N)N)C(=O)N[C@@H](CCCNC(=N)N)C(=O)N[C@@H](CCC(N)=O)C(=O)N[C@@H](CCCNC(=N)N)C(=O)N[C@@H](CCCNC(=N)N)C(=O)N[C@@H](CCCNC(=N)N)C(=O)O)NC(C)=O)C(=O)NCC(=O)N[C@@H](Cc1ccc(O)cc1)C(=O)N[C@@H](CC(=O)O)C(N)=O` [KAI-9706 carrier Ac—OH cargo Ac—NH2], for which the amount remaining at 0.25 h amounted to 48%.

In turn, `CC[C@H](C)[C@H](NC(=O)[C@@H]1CCCN1C(=O)[C@H](C)NC(=O)[C@H](CC(=O)O)NC(=O)[C@H](Cc1c[nH]cn1)NC(=O)[C@@H](N)CSSC[C@H](NC(C)=O)C(=O)N[C@@H](Cc1ccc(O)cc1)C(=O)NCC(=O)N[C@@H](CCCNC(=N)N)C(=O)N[C@@H](CCCCN)C(=O)N[C@@H](CCCCN)C(=O)N[C@@H](CCCNC(=N)N)C(=O)N[C@@H](CCCNC(=N)N)C(=O)N[C@@H](CCC(N)=O)C(=O)N[C@@H](CCCNC(=N)N)C(=O)N[C@@H](CCCNC(=N)N)C(=O)N[C@@H](CCCNC(=N)N)C(=O)O)C(=O)NCC(=O)N[C@@H](Cc1ccc(O)cc1)C(=O)N[C@@H](CC(=O)O)C(=O)O` [KAI-9706 carrier Ac—OH cargo H—OH] returned a share remaining at 0.25 h of 57%.

`CC[C@H](C)[C@H](NC(=O)[C@@H]1CCCN1C(=O)[C@H](C)NC(=O)[C@H](CC(=O)O)NC(=O)[C@H](Cc1c[nH]cn1)NC(=O)[C@H](CSSC[C@H](N)C(=O)N[C@@H](Cc1ccc(O)cc1)C(=O)NCC(=O)N[C@@H](CCCNC(=N)N)C(=O)N[C@@H](CCCCN)C(=O)N[C@@H](CCCCN)C(=O)N[C@@H](CCCNC(=N)N)C(=O)N[C@@H](CCCNC(=N)N)C(=O)N[C@@H](CCC(N)=O)C(=O)N[C@@H](CCCNC(=N)N)C(=O)N[C@@H](CCCNC(=N)N)C(=O)N[C@@H](CCCNC(=N)N)C(N)=O)NC(C)=O)C(=O)NCC(=O)N[C@@H](Cc1ccc(O)cc1)C(=O)N[C@@H](CC(=O)O)C(N)=O` [KAI-9706 carrier H—NH2 cargo Ac—NH2] gave a share remaining at 0.25 h of 51%.

Compound `CC[C@H](C)[C@H](NC(=O)[C@@H]1CCCN1C(=O)[C@H](C)NC(=O)[C@H](CC(=O)O)NC(=O)[C@H](Cc1c[nH]cn1)NC(=O)[C@@H](N)CSSC[C@H](N)C(=O)N[C@@H](Cc1ccc(O)cc1)C(=O)NCC(=O)N[C@@H](CCCNC(=N)N)C(=O)N[C@@H](CCCCN)C(=O)N[C@@H](CCCCN)C(=O)N[C@@H](CCCNC(=N)N)C(=O)N[C@@H](CCCNC(=N)N)C(=O)N[C@@H](CCC(N)=O)C(=O)N[C@@H](CCCNC(=N)N)C(=O)N[C@@H](CCCNC(=N)N)C(=O)N[C@@H](CCCNC(=N)N)C(N)=O)C(=O)NCC(=O)N[C@@H](Cc1ccc(O)cc1)C(=O)N[C@@H](CC(=O)O)C(=O)O` [KAI-9706 carrier H—NH2 cargo H—OH] registered an amount remaining at 0.25 h of 60%.

In the case of `CC[C@H](C)[C@H](NC(=O)[C@@H]1CCCN1C(=O)[C@H](C)NC(=O)[C@H](CC(=O)O)NC(=O)[C@H](Cc1c[nH]cn1)NC(=O)[C@H](CSSC[C@H](N)C(=O)N[C@@H](Cc1ccc(O)cc1)C(=O)NCC(=O)N[C@@H](CCCNC(=N)N)C(=O)N[C@@H](CCCCN)C(=O)N[C@@H](CCCCN)C(=O)N[C@@H](CCCNC(=N)N)C(=O)N[C@@H](CCCNC(=N)N)C(=O)N[C@@H](CCC(N)=O)C(=O)N[C@@H](CCCNC(=N)N)C(=O)N[C@@H](CCCNC(=N)N)C(=O)N[C@@H](CCCNC(=N)N)C(=O)O)NC(C)=O)C(=O)NCC(=O)N[C@@H](Cc1ccc(O)cc1)C(=O)N[C@@H](CC(=O)O)C(N)=O` [KAI-9706 carrier H—OH cargo Ac—NH2], the fraction remaining at 0.25 h came out at 0%.
